The assay has as its target T1, human SSAO (Homo sapiens, UniProt Q16853).
T1 construct: made in house
T1 sequence (Q16853 29-763 limits assumed): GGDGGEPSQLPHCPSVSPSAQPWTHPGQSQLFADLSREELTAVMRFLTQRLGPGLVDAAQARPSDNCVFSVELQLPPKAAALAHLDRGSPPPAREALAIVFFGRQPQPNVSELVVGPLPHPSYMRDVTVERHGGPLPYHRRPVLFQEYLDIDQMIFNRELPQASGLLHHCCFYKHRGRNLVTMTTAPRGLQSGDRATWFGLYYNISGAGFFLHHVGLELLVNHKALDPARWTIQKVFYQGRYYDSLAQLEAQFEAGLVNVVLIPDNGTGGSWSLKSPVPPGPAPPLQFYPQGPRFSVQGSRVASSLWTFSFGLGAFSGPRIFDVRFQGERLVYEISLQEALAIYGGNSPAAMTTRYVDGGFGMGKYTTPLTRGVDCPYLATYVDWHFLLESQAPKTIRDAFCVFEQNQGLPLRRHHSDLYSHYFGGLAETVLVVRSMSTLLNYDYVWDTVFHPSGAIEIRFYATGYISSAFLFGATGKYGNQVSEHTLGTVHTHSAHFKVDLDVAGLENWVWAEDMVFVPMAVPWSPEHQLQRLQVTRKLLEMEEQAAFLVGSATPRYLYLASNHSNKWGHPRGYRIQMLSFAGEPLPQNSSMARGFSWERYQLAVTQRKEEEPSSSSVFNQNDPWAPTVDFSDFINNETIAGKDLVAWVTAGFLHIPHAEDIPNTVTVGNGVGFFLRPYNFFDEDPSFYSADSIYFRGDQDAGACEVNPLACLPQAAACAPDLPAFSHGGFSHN
Description: SSAO enzyme inhibition assay (benzylamine substrate; HRP-coupled hydrogen peroxide detection or 14C-benzaldehyde detection). Type of assay: biochemical. The following applies: purified recombinantly expressed human SSAO, benzylamine as substrate, r.t.; read-out: SSAO inhibitory activity IC50. A digest of the protocol: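 Purified recombinant human SSAO, pre-incubated ~15 min at r.t. with compound, then benzylamine added; final DMSO ≦2%. HRP-coupled Amplex format in 50 mM sodium phosphate pH 7.4: enzyme 1 μg/ml, benzylamine 100 μM (≈Km), fluorescence over 1-2 h; 14C format: enzyme 10 μg/ml, benzylamine 40 μM, 1 h. IC50 from four-parameter fit.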

As a reminder, the IC50 is the concentration that inhibits the measured activity by half.

Structures are written as SMILES. Structures can show the parent of a compound that is named as a salt.

As to `Cc1cc(Cl)ccc1-n1cc(C2CCC(N)CC2)c2ccncc21` (mixture of isomers) [Compound 13, 4-[1-(4-Chloro-2-methylphenyl)-1H-pyrrolo[2,3-c]pyridin-3-yl]cyclohexan-1-amine hydrochloride], the IC50 was in the range of 0.1 to 0.5 µM.
In the case of `Clc1ccc(-n2cc(N3CCOCC3)c3ccncc32)cc1` [Compound 104, 4-[1-(4-Chlorophenyl)-1H-pyrrolo[2,3-c]pyridin-3-yl]morpholine 2,2,2-trifluoroacetic acid], the IC50 is below 0.1 µM.
For `FC1(F)CCN(c2nn(-c3ccc(Cl)cc3)c3cnccc23)CC1` [Compound 52, 1-[1-(4-Chlorophenyl)-1H-pyrazolo[3,4-c]pyridin-3-yl]-4,4-difluoropiperidine], the IC50 lay within 0.1 to 0.5 µM.
As for `CN1CCN(Cc2cn(-c3ccc(Cl)cc3)c3cnccc23)CC1` [Compound 24, 1-{[1-(4-Chlorophenyl)-1H-pyrrolo[2,3-c]pyridin-3-yl]methyl}-4-methylpiperazine], the IC50 was 0.5 to 2.5 µM.
Regarding `NCC(=O)N1CCC(c2cn(-c3ccc(Cl)cc3)c3cnccc23)CC1` [Compound 16, 2-Amino-{4-[1-(4-chlorophenyl)-1H-pyrrolo[2,3-c]pyridin-3-yl]piperidin-1-yl}-ethan-1-one hydrochloride], the IC50 is below 0.1 µM.
On to `Fc1ccc(-n2nc(C3CCOCC3)c3ccncc32)cc1` [Compound 83, 1-(4-Fluorophenyl)-3-(oxan-4-yl)-1H-pyrazolo[3,4-c]pyridine], for which the IC50 fell in the range of 0.1 to 0.5 µM.
`Cc1ccc(-n2nc(C3CCOCC3)c3ccncc32)nc1` [Compound 46, 5-Methyl-2-[3-(oxan-4-yl)-1H-pyrazolo[3,4-c]pyridin-1-yl]pyridine]: the IC50 fell in the range of 0.5 to 2.5 µM.
Take `OC1CCN(c2nn(-c3ccc(Cl)cc3)c3cnccc23)CC1` [Compound 53, 1-[1-(4-Chlorophenyl)-1H-pyrazolo[3,4-c]pyridin-3-yl]piperidin-4-ol]: the IC50 is below 0.1 µM.
As to `Oc1cc2c(C3CCOCC3)nn(-c3ccc(Cl)cc3)c2cn1` [Compound 97, 1-(4-Chlorophenyl)-3-(oxan-4-yl)-1H,5H,6H-pyrazolo[3,4-c]pyridin-5-one], the IC50 is 0.1 to 0.5 µM.
Consider `Cn1cc(CN2CCC(c3cn(-c4ccc(Cl)cc4)c4cnccc34)CC2)cn1` [Compound 20, 4-[1-(4-Chlorophenyl)-1H-pyrrolo[2,3-c]pyridin-3-yl]-1-[(1-methyl-1H-pyrazol-4-yl)-methyl]piperidine], for which the IC50 was 0.1 to 0.5 µM.
Next, `NCCC(=O)N1CCC(c2nn(-c3ccc(Cl)cc3)c3cnccc23)CC1` [Compound 93, 3-Amino-1-{4-[1-(4-chlorophenyl)-1H-pyrazolo[3,4-c]pyridin-3-yl]piperidin-1-yl}propan-1-one dihydrochloride]: 0.1 to 0.5 µM.
Take `Cc1ccc(-n2nc(N3CCNC(=O)C3)c3ccncc32)cc1` [Compound 68, 4-[1-(4-Methylphenyl)-1H-pyrazolo[3,4-c]pyridin-3-yl]piperazin-2-one]: the IC50 was below 0.1 µM.
Turning to `Clc1ccc(-n2cc(C3CCOCC3)c3ncncc32)cc1` [Compound 98, 5-(4-Chlorophenyl)-7-(oxan-4-yl)-5H-pyrrolo[3,2-d]pyrimidine], the IC50 lay in the range of 0.1 to 0.5 µM.
Regarding `Cc1ccc(-n2nc(C3CNCCO3)c3ccncc32)cc1` (stereo not drawn) [Compound 86, 2-[1-(4-Methylphenyl)-1H-pyrazolo[3,4-c]pyridin-3-yl]morpholine], the IC50 was 0.5 to 2.5 µM.
Consider `C[C@@H]1CN(c2nn(-c3ccc(Cl)cc3)c3cnccc23)C[C@H](C)O1` [Compound 62, (2S,6R)-4-[1-(4-Chlorophenyl)-1H-pyrazolo[3,4-c]pyridin-3-yl]-2,6-dimethylmorpholine], for which the IC50 is 0.1 to 0.5 µM.
As to `Clc1ccc(-n2cc(C3CCOCC3)c3ccncc32)cc1` [Compound 101, 1-(4-Chlorophenyl)-3-(oxan-4-yl)-1H-pyrrolo[2,3-c]pyridine], the IC50 is below 0.1 µM.
As for `NCCCC(=O)N1CCC(c2cn(-c3ccc(Cl)cc3)c3cnccc23)CC1` [Compound 105, 2,2,2-Trifluoroacetic acid; 4-amino-1-{4-[1-(4-chlorophenyl)-1H-pyrrolo[2,3-c]pyridin-3-yl]piperidin-1-yl}butan-1-one], the IC50 is below 0.1 µM.
Regarding `Clc1ccc(-n2cc(CN3CCNCC3)c3ccncc32)cc1` [Compound 26, 1-{[1-(4-Chlorophenyl)-1H-pyrrolo[2,3-c]pyridin-3-yl]methyl}piperazine], the IC50 lay in the range of 0.5 to 2.5 µM.
Take `OCCC1CCN(Cc2cn(-c3ccc(Cl)cc3)c3cnccc23)CC1` [Compound 27, 2-(1-{[1-(4-Chlorophenyl)-1H-pyrrolo[2,3-c]pyridin-3-yl]methyl}piperidin-4-yl)ethan-1-ol]: the IC50 was in the range of 0.5 to 2.5 µM.
Next, `Cc1ccc(-n2nc(C3COCCN3)c3ccncc32)cc1` (stereo not drawn) [Compound 85, 3-[1-(4-Methylphenyl)-1H-pyrazolo[3,4-c]pyridin-3-yl]morpholine]: 0.5 to 2.5 µM; `Clc1ccc(-n2nc(C3CCNCC3)c3ccncc32)cc1` [Compound 84, 4-[1-(4-Chlorophenyl)-1H-pyrazolo[3,4-c]pyridin-3-yl]piperidine]: 0.1 to 0.5 µM.

The values are drawn from patent US9227967B2, “Inhibitor compounds of semicarbazide-sensitive amine oxidases” (Proximagen Limited, priority 2010, dated 2016).
